In US20220008409A1, “CANCER COMBINATION THERAPY USING QUINOLINE CARBOXAMIDE DERIVATIVE” (KABUSHIKI KAISHA YAKULT HONSHA, priority 2018, published 2022):

Test system: MDA-MB-231 cells
Assay: Combination effect of STX-1159 and mTOR inhibitor, WST-8 assay
Assay type: cell-based, Human
Settings: in combination with STX-1159, 48 hours
Procedure: Human breast cell line MDA-MB-231 cells or MDA-MB-468 cells (in the case of rapamycin) were inoculated on a 96-well plate to 2.5×10^3/100 μL/well or 1.0×10^3/100 μL/well, and cultured under conditions of 5% CO2 and 37° C. To the control group was added DMSO, so as to be a final concentration of 0.05%. Subsequently, the cells were cultured under conditions of 5% CO2 and 37° C. for 48 hours, and the viable cell count was then evaluated by WST-8 assay. […] The absorbance of water-soluble formazan generated by enzymatic activity of mitochondria in cells was measured at 450 nm using a microplate reader (Molecular Devices, Model: SpectraMax Plus).
Human breast cell line MDA-MB-231 cells or MDA-MB-468 cells (in the case of rapamycin) were inoculated on a 96-well plate so as to be 2.5×10^3/100 μL/well or 1.0×10^3/100 μL/well, respectively. The cells were incubated in a CO2 incubator at 37° C. After 24 hours, the supernatant was discarded, and 80 μL of a culture medium for assay was added. […] The mixture was left standing in a CO2 incubator at 37° C. for 48 hours, the supernatant was then removed, and the mixture was washed once with 100 μL of PBS(−). A WST-8 solution diluted by 10 times with the medium for assay was added at 100 μL/well, and the absorbance was measured at a wavelength of 450 nm using a plate reader. CI was calculated from the measured value.

SMILES | CI | Combination effect
CCC(=O)N1CCN(c2ccc(-n3c(=O)ccc4cnc5ccc(-c6cnc7ccccc7c6)cc5c43)cc2C(F)(F)F)CC1 [Torin 1] | 0.68 | Synergetic effect (0.3 < CI ≤ 0.7)
c1cncc(CN2CCC(n3ncc4c(N5CCOCC5)nc(-c5ccc6[nH]ccc6c5)nc43)CC2)c1 [WAY-600] | 0.64 | Synergetic effect (0.3 < CI ≤ 0.7)
COc1ccc(-c2cc3c(C)nc(N)nc3n([C@H]3CC[C@H](OCCO)CC3)c2=O)cn1 [PF-04691502] | 0.73 | Moderate synergetic effect (0.7 < CI ≤ 0.85)
O=C1NC(=O)/C(=C/c2ccc3nccc(-c4ccncc4)c3c2)S1 [GSK1059615] | 0.64 | Synergetic effect (0.3 < CI ≤ 0.7)
COC(=O)Nc1ccc(-c2nc(N3CCOCC3)c3cnn(C4CCN(Cc5cccnc5)CC4)c3n2)cc1 [WYE-687] | 0.85 | Moderate synergetic effect (0.7 < CI ≤ 0.85)
COc1ncc(-c2ccc3nccc(-c4ccnnc4)c3c2)cc1NS(=O)(=O)c1ccc(F)cc1F [GSK2126458] | 0.63 | Synergetic effect (0.3 < CI ≤ 0.7)
COc1ccc(-c2ccc3c(N4CCOCC4)nc(N4C[C@@H](C)O[C@@H](C)C4)nc3n2)cc1CO [KU-0063794] | 0.36 | Synergetic effect (0.3 < CI ≤ 0.7)
COc1ccc(-c2ccc3c(N4CCOC[C@@H]4C)nc(N4CCOC[C@@H]4C)nc3n2)cc1CO [AZD8055] | 0.36 | Synergetic effect (0.3 < CI ≤ 0.7)
CNC(=O)c1cccc(-c2ccc3c(N4CCOC[C@@H]4C)nc(N4CCOC[C@@H]4C)nc3n2)c1 [AZD2014] | 0.51 | Synergetic effect (0.3 < CI ≤ 0.7)
Nc1ccc(-c2ccc3ncc4ccc(=O)n(-c5cccc(C(F)(F)F)c5)c4c3c2)cn1 [Torin 2] | 0.66 | Synergetic effect (0.3 < CI ≤ 0.7)
Nc1ncnc2c1c(-c1cnc3[nH]ccc3c1)nn2C1CCCC1 [PP-121] | 0.88 | Light synergetic effect (0.85 < CI ≤ 0.9)
COc1cccc2cc(-c3nc([C@H]4CC[C@H](C(=O)O)CC4)n4ncnc(N)c34)[nH]c12 [OSI-027] | 0.49 | Synergetic effect (0.3 < CI ≤ 0.7)
CC(C)n1nc(-c2ccc3oc(N)nc3c2)c2c(N)ncnc21 [INK 128] | 0.56 | Synergetic effect (0.3 < CI ≤ 0.7)
Oc1cccc(-c2nc(N3CCOCC3)c3oc4ncccc4c3n2)c1 [PI-103] | 0.60 | Synergetic effect (0.3 < CI ≤ 0.7)
CN(C)C1CCN(C(=O)c2ccc(NC(=O)Nc3ccc(-c4nc(N5CCOCC5)nc(N5CCOCC5)n4)cc3)cc2)CC1 [PF-05212384(PKI-587)] | 0.63 | Synergetic effect (0.3 < CI ≤ 0.7)
CNC(=O)Nc1ccc(-c2nc(N3CC4CCC(C3)O4)c3cnn(C4CCC5(CC4)OCCO5)c3n2)cc1 [WYE-125132] | 0.40 | Synergetic effect (0.3 < CI ≤ 0.7)
Cc1c(CN2CCN(C(=O)[C@H](C)O)CC2)sc2c(N3CCOCC3)nc(-c3cnc(N)nc3)nc12 [GDC-0980(RG7422)] | 0.86 | Light synergetic effect (0.85 < CI ≤ 0.9)
CC(C)n1nc(-c2cc3cc(O)ccc3[nH]2)c2c(N)ncnc21 [PP242] | 0.84 | Moderate synergetic effect (0.7 < CI ≤ 0.85)
